Results taken from patent US20160244486A1, “AB Modulating Peptides” (ALZHYME PTY LTD, priority 2013, published 2016).
Square brackets hold non-standard residues; d marks the D form. Ends that are not written are not given here. Peptide text beside a SMILES is read from it. ξ: configuration not given here. ξT = CC(O)C(N)C(=O)O

How the values were obtained:
[1] = test system: amyloid plaques; test: Ex vivo staining of amyloid plaques in brain tissue sections; settings: brain tissue from 8 month old 5× FAD AD model mice
Protocol: (x) Immunohistochemistry—Brains were obtained from 8 month old 5× FAD AD model mice Oakley, F-F et al (2006) or age-matched non-transgenic controls and post-fixed and embedded in the freezing medium as described in Drummond, E. S. et al (2013). Serial sagittal cryosections were cut at a thickness of 10 μm. Positive control staining for amyloid was performed using Thioflavin S (ThioS) as described in Youmans, K. L, et al (2012). After the removal of the freezing medium by serial changes of TBS pH 7.4, the slide was incubated for 1 h at room temperature in blocking buffer (10% goat serum in TBS). The slides were then stained with 1 μM TMR-labelled 15M S.A. peptide in 2% goat-serum-PBS for 2 hours at room temperature. Excess unbound peptide was removed prior to mounting by extensive washing with TBS. The coverslip was mounted using Prolong Gold mounting media (Life Technologies).
We investigated whether TMR-labelled 15M S.A. could be used to stain amyloid plaques ex vivo using brain tissue sections from AD model mice, in comparison with Thioflavin S (Thio S), which binds mature amyloid deposits and readily detects these plaques.

[2] = In vitro peptide stability in 10% rat brain homogenate, RP-HPLC quantification; format: in vitro ADME; settings: 37° C.
Protocol: Peptides were prepared as a 1 mM solution in phosphate-buffered saline. 20 μl of the peptide solution was diluted in 10% rat brain homogenate (in 1× phosphate-buffered saline and 0.5% Triton X-100).
The solution was incubated at 37° C. for different times, and the reaction was stopped by adding the Complete mixture of protease inhibitors (Roche Molecular Biochemicals, Mannheim, Germany). For ANA5 and RI-ANA5, the bulk of the brain proteins (but not the peptides) were precipitated in cold methanol (1:4 (v/v) mixture/MeOH) for 1 hr at −20° C. The precipitated proteins were pelleted by centrifugation at 10,000 g for 10 min at 4° C. The supernatant containing the peptide was concentrated five times under vacuum and separated by RP-HPLC. Due to recovery issues with the longer ANA1 and RI-ANA1 peptides, samples were instead lyophilized and then reconstituted in a TFA solution, prior to separation by RP-HPLC.
The area of the peak (UV absorbance at 205 nm) corresponding to the intact peptide was measured and compared with an equivalent sample incubated in phosphate-buffered saline.
(iii) In vitro assay of peptide stability—Peptides were prepared as a 1 mM solution in PBS. 20 μl of the peptide solution was diluted in 10% rat brain homogenate (in PBS+0.5% Triton X-100). The solution was incubated at 37° C. for different times, and the reaction was stopped by adding the Complete mixture of protease inhibitors (Roche Molecular Biochemicals, Mannheim, Germany). For ANA5 and 9M S.A., the bulk of the brain proteins (but not the peptides) were precipitated in cold methanol (1:4 (v/v) mixture/methanol) for 1 h at −20° C. The precipitated proteins were pelleted by centrifugation (10.000 g, 10 min, 4° C.). The supernatant containing the peptide was concentrated five times under vacuum and separated by reversed-phase HPLC (RP-HPLC). Due to recovery issues with the longer ANA1 and RI-ANA1 peptides, samples were instead lyophilized, extracted in TFA, centrifuged to remove insoluble material and separated by RP-HPLC. The area of the peak (UV absorbance at 205 nm) corresponding to the intact peptide was measured and compared with an equivalent sample incubated in PBS.
Peptides were prepared as 1 mM solutions in PBS and diluted in 10% rat brain homogenate. Solutions were incubated at 37° C. for different times, and the reactions were stopped by addition of protease inhibitors. Samples were processed as described herein in the General Materials/Methods, separated by RP-HPLC and the level of intact peptide was determined at each time point.

[3] = target: oligomeric Aβ42 (human synthetic Aβ42, pre-formed oligomers) (human) (UniProt P05067); test: SPR (Biacore 3000), 15M S.A. immobilised on CM5, oAβ42 injected; 1:1 binding model with drifting baseline; overall estimate across the oligomer mixture
Sequence of UniProt P05067 (P05067 672-713 limits assumed): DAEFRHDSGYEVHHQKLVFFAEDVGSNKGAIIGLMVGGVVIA

| intact peptide amount ([2]; time 0 min) [µg] | intact peptide amount ([2]; time 15 min) [µg] | intact peptide amount ([2]; time 30 min) [µg] | intact peptide amount ([2]; time 300 min) [µg] | Compound | other results |
| --- | --- | --- | --- | --- | --- |
| – | – | – | – | Thioflavin S [Thio S] | staining of amyloid deposits [1]: extensive plaques |
| 25.8 | 5.6 | 0.03 | 0.02 | TNPNRRNRTPQMLKR [ANA1, Thr-Asn-Pro-Asn-Arg-Arg-Asn-Arg-Thr-Pro-Gln-Met-Leu-Lys-Arg] | intact peptide amount ([2]; time 0 min, listed as 15mer): 25.78 µg; intact peptide amount ([2]; time 15 min, listed as 15mer): 5.55 µg; intact peptide amount ([2]; time 30 min, listed as 15 mer): trace amounts; intact peptide amount ([2]; time 30 min, listed as 15mer): 0.03 µg |
| 12 | 0.47 | 0 | 0 | NRTPQMLKR [ANA5, Asn-Arg-Thr-Pro-Gln-Met-Leu-Lys-Arg] | intact peptide amount ([2]; time 0 min, listed as 9mer): 12.00 µg; intact peptide amount ([2]; time 30 min, listed as 9 mer): none; intact peptide amount ([2]; time 30 min, listed as 9mer): 0 µg |
| – | – | – | – | RI-ANA1 (Arg-Lys-Leu-Met-Gln-Pro-Thr-Arg-Asn-Arg-Arg-Asn-Pro-Asn-Thr, all D-amino acids) (peptide) | Kd [3]: 11 µM |
| 14 | 12.35 | 12.35 | 12.5 | CSCC[C@@H](NC(=O)[C@@H](CC(C)C)NC(=O)[C@@H](CCCCN)NC(=O)[C@H](N)CCCNC(=N)N)C(=O)N[C@H](CCC(N)=O)C(=O)N1CCC[C@@H]1C(=O)N[C@@H](C(=O)N[C@H](CCCNC(=N)N)C(=O)N[C@H](CC(N)=O)C(=O)O)[C@H](C)O [RI-ANA5, Arg-Lys-Leu-Met-Gln-Pro-Thr-Arg-Asn] | intact peptide amount ([2]; time 0 min, listed as 9M S.A.): 14.11 µg; intact peptide amount ([2]; time 300 min, listed as 9M S.A.): 12.51 µg |
| 29.8 | 27.8 | 29.4 | 33.5 | CSCC[C@@H](NC(=O)[C@@H](CC(C)C)NC(=O)[C@@H](CCCCN)NC(=O)[C@H](N)CCCNC(=N)N)C(=O)N[C@H](CCC(N)=O)C(=O)N1CCC[C@@H]1C(=O)NC(C(=O)N[C@H](CCCNC(=N)N)C(=O)N[C@H](CC(N)=O)C(=O)N[C@H](CCCNC(=N)N)C(=O)N[C@H](CCCNC(=N)N)C(=O)N[C@H](CC(N)=O)C(=O)N1CCC[C@@H]1C(=O)N[C@H](CC(N)=O)C(=O)NC(C(=O)O)C(C)O)C(C)O (stereo partly drawn) [RI-ANA1, Arg-Lys-Leu-Met-Gln-Pro-Thr-Arg-Asn-Arg-Arg-Asn-Pro-Asn-Thr] (H-[dR][dK][dL][dM][dQ][dP][ξT][dR][dN][dR][dR][dN][dP][dN][ξT]-OH; N-terminus and C-terminus assumed) | intact peptide amount ([2]; time 0 min, listed as 15M S.A.): 29.80 µg; intact peptide amount ([2]; time 15 min, listed as 15M S.A.): 27.80 µg; intact peptide amount ([2]; time 30 min, listed as 15M S.A.): 29.40 µg; intact peptide amount ([2]; time 300 min, listed as 15M S.A.): 33.50 µg |
